Data on 9 molecules can be found in ChEMBL document CHEMBL3991601, “The target landscape of clinical kinase drugs” (Science, 2017).

In assay [1] the target is Tyrosine-protein kinase JAK1 (Homo sapiens, UniProt P23458).
The target of assay [2] is T1, Mitogen-activated protein kinase 15 (Homo sapiens, UniProt Q8TD08).
T1 sequence (Q8TD08 whole entry): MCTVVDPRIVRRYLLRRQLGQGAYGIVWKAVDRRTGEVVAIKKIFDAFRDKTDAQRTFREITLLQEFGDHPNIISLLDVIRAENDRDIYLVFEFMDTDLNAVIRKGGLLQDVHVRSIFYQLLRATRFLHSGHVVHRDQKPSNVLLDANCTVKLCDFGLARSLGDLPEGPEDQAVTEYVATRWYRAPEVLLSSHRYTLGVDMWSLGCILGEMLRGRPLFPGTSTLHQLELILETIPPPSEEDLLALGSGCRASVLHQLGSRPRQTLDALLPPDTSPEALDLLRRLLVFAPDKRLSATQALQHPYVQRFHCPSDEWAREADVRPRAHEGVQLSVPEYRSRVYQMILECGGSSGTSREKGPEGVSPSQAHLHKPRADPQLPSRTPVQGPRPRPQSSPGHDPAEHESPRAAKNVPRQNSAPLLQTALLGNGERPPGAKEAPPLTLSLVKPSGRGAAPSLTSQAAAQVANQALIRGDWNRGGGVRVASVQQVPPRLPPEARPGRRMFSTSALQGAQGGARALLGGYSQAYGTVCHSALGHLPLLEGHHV

Assay [3] deals with Epithelial discoidin domain-containing receptor 1 (Homo sapiens, UniProt Q08345).
Sequence of Epithelial discoidin domain-containing receptor 1 (Q08345 whole entry, the tested form may be a part): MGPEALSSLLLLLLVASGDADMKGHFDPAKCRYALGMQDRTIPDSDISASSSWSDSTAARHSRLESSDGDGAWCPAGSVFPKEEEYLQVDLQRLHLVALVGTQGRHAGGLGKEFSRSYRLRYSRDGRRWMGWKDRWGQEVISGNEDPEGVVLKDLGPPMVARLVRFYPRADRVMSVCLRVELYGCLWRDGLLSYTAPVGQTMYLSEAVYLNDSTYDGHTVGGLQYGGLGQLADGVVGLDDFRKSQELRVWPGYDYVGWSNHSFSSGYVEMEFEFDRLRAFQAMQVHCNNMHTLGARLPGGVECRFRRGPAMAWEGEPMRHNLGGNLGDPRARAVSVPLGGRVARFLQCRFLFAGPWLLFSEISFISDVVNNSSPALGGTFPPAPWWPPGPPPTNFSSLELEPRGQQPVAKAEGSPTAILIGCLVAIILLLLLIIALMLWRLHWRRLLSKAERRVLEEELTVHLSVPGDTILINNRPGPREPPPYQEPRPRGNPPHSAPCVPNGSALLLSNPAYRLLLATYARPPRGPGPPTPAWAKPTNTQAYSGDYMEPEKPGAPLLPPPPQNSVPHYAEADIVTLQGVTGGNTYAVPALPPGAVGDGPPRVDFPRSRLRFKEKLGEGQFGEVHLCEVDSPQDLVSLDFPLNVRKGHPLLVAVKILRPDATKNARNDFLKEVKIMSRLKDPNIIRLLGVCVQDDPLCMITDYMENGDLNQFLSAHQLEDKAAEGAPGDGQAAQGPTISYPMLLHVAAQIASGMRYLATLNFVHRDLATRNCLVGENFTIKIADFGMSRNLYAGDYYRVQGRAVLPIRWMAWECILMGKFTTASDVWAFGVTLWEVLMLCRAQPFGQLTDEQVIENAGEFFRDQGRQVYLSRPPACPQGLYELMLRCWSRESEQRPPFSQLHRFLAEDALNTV
The target of assay [4] is Calcium/calmodulin-dependent protein kinase kinase 2 (Homo sapiens, UniProt Q96RR4).
Sequence of Calcium/calmodulin-dependent protein kinase kinase 2 (Q96RR4 whole entry): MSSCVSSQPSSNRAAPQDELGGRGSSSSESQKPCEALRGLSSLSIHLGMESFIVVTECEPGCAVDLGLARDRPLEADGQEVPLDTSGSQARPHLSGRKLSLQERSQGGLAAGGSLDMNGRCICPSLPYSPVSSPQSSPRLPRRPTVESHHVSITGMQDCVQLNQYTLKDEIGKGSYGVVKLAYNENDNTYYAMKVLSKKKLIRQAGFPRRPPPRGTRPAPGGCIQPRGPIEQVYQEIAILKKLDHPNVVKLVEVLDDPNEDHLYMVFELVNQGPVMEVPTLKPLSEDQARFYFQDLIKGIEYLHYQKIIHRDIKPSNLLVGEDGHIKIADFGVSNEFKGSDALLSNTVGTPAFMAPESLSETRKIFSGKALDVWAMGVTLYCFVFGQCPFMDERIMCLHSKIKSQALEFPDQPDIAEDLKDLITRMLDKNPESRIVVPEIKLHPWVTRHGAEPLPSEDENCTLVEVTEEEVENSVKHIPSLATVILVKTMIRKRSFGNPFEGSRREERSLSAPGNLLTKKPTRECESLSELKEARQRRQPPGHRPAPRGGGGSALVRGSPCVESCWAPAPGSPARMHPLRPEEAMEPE
Assay [5] addresses T2, MAP/microtubule affinity-regulating kinase 4 (Homo sapiens, UniProt Q96L34).
T2 sequence (Q96L34 whole entry): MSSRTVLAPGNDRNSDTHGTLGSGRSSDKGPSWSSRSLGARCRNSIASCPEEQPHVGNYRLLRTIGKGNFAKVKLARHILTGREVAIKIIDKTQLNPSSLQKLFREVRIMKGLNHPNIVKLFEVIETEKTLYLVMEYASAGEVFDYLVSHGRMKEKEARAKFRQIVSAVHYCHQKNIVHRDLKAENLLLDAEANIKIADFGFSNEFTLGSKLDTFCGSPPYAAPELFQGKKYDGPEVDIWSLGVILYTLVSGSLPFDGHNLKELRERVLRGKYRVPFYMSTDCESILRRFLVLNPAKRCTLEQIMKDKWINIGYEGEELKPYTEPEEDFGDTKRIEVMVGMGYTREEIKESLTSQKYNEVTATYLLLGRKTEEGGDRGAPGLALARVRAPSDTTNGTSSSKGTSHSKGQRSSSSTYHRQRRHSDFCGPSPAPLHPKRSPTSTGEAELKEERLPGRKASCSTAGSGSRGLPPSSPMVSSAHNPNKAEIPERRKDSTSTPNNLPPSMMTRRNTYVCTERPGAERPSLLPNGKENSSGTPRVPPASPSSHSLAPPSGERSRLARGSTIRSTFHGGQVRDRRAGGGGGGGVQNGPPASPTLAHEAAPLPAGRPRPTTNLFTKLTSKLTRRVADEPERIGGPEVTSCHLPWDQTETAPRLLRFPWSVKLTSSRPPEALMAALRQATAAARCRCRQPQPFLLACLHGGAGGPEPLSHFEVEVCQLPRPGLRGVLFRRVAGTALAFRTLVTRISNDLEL

Assay [6] concerns the target Tyrosine-protein kinase HCK (Homo sapiens, UniProt P08631).
Assay [7] has as its target T3, Phenylalanine--tRNA ligase beta subunit (Homo sapiens, UniProt Q9NSD9).
T3 sequence (Q9NSD9 whole entry): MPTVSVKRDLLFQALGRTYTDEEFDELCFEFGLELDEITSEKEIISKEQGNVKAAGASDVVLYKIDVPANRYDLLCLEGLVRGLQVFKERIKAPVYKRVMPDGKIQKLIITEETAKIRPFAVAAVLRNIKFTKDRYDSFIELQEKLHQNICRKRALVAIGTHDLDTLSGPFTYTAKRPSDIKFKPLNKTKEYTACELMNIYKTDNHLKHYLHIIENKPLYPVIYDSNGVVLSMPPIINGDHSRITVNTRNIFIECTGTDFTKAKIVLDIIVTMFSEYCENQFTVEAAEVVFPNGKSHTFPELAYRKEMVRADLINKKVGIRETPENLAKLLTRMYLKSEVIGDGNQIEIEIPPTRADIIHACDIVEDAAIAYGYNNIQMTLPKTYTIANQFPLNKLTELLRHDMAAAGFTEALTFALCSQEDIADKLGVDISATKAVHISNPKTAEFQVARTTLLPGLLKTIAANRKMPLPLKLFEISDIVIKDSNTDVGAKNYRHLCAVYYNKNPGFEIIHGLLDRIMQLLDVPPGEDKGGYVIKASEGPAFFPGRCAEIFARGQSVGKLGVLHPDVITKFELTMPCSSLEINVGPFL

Assay [8] concerns the target Serine/threonine-protein kinase pim-1 (Homo sapiens, UniProt P11309).
Assay [9] deals with Ribosomal protein S6 kinase alpha-5 (Homo sapiens, UniProt O75582).
Sequence of Ribosomal protein S6 kinase alpha-5 (O75582 whole entry): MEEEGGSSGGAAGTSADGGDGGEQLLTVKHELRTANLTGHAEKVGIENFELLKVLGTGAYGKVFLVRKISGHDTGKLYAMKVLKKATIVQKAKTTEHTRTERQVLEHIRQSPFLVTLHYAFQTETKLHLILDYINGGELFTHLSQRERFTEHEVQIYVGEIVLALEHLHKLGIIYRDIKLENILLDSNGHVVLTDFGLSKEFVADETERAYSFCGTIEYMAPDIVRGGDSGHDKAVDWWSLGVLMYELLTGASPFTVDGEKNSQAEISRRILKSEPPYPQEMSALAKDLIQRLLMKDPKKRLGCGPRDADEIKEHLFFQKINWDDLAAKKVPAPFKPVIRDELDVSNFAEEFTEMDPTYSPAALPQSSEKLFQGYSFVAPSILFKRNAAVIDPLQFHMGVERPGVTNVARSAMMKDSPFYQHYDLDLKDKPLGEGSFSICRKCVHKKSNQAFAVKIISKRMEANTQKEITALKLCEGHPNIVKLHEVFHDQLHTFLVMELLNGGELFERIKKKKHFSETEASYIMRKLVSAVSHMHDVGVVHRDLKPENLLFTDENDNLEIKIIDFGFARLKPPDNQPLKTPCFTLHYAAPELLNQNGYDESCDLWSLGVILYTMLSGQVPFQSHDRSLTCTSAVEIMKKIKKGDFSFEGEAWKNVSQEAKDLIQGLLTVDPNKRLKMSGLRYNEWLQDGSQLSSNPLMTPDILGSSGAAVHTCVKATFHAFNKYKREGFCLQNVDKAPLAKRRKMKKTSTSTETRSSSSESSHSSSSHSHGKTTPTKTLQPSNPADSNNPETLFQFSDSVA
Assay [10] addresses Cyclin-dependent kinase 1 (Homo sapiens, UniProt P06493).
In a further assay the target is Activin receptor type-2B (Homo sapiens, UniProt Q13705).
Sequence of Activin receptor type-2B (Q13705 whole entry): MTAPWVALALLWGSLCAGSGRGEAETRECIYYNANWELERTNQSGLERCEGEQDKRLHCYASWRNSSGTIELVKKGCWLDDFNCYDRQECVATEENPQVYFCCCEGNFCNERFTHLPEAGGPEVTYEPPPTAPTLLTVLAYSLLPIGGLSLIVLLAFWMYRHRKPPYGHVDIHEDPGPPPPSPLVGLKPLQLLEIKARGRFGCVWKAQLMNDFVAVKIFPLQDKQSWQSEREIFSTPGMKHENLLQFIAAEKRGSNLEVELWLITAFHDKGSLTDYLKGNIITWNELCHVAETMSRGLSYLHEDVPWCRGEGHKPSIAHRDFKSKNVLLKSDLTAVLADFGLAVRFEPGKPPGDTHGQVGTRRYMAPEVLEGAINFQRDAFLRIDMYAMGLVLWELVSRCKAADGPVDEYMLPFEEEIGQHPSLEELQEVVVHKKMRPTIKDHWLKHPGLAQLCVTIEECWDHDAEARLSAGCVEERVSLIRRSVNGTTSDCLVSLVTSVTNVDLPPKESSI
The target in the next assay is Ephrin type-A receptor 7 (Homo sapiens, UniProt Q15375).
Sequence of Ephrin type-A receptor 7 (Q15375 whole entry): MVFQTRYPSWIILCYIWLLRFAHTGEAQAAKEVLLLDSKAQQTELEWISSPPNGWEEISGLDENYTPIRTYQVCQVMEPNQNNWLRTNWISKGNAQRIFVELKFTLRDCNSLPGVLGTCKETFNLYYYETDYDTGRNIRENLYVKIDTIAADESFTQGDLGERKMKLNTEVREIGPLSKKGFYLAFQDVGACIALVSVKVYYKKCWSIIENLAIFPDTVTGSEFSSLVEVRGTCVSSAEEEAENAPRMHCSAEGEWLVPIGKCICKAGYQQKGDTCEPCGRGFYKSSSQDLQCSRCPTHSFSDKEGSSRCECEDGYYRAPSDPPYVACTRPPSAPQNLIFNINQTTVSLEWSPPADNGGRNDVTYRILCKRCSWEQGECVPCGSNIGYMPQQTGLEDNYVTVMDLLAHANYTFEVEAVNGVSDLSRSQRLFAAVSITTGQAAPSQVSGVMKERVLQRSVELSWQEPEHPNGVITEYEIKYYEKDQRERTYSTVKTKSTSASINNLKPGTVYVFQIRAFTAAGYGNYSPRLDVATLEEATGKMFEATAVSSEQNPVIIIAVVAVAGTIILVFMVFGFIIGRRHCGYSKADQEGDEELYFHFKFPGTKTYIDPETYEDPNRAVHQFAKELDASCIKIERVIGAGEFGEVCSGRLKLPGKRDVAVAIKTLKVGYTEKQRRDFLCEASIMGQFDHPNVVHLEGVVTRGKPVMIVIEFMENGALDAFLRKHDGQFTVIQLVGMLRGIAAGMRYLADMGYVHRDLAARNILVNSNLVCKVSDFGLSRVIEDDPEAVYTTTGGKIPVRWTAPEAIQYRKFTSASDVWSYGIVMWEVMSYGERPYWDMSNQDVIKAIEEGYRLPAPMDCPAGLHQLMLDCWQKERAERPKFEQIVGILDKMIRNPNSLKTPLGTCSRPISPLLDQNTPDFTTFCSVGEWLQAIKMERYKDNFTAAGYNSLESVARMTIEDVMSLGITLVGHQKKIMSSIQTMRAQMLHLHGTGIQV

The source made the active and inactive calls. Rule as the data show it, for most assays here: actives have a measured Kd and inactives only a lower limit.

One may read the Kd as a measure of binding affinity in units of concentration.
Also: in the data inactive means no Kd found up to 30 µM.

Sequence of Tyrosine-protein kinase HCK (P08631 whole entry): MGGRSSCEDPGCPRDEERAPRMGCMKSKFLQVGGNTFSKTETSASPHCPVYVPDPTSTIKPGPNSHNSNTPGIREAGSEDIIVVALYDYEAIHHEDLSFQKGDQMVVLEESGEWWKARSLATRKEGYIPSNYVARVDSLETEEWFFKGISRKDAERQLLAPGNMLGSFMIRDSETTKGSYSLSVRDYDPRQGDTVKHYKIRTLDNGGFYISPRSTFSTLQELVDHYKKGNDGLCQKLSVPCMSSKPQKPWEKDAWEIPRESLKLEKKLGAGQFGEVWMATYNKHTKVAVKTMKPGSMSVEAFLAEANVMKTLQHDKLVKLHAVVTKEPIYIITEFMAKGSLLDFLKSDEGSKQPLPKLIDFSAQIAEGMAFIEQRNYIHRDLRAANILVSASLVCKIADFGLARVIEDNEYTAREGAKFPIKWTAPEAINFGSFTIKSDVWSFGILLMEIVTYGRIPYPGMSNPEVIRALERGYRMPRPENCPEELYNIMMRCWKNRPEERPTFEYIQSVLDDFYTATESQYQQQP
Sequence of Cyclin-dependent kinase 1 (P06493 whole entry): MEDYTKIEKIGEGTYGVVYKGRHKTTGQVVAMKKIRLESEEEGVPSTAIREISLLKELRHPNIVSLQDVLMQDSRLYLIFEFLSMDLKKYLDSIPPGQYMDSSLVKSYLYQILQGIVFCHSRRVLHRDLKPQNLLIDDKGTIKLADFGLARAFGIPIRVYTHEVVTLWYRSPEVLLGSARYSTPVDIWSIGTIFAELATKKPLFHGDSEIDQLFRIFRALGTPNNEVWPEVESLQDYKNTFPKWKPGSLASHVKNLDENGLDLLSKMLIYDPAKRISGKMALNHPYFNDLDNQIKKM
Sequence of Serine/threonine-protein kinase pim-1 (P11309 whole entry): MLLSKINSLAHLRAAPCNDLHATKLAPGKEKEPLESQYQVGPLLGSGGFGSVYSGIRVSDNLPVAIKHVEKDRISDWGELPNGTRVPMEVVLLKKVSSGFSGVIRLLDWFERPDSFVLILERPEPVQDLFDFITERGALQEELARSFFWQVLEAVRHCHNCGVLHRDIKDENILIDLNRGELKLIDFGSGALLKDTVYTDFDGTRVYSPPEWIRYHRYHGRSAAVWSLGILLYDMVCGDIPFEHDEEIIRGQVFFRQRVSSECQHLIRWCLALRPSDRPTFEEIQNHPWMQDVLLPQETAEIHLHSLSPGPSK

As to `CN1CCN(CCOc2cc(OC3CCOCC3)c3c(Nc4c(Cl)ccc5c4OCO5)ncnc3c2)CC1` [SARACATINIB], the Kd in assay [1] was > 30 µM (inactive); in [2], > 30 µM (inactive); in assay [3] it was 4.4 µM (active); in assay [4], > 30 µM (inactive); in assay [5] it was > 30 µM (inactive); in assay [6] it was 0.1 µM (active). For the same molecule, the Kd in [7] is > 30 µM (inactive); in assay [8], > 30 µM (inactive); in assay [9] it was > 30 µM (inactive); in assay [10], > 30 µM (inactive); on Activin receptor type-2B, 3.88 µM (active); at Ephrin type-A receptor 7, > 30 µM (inactive).
Consider `Cn1cc(-c2cnn3c(N)c(Br)c([C@@H]4CCCNC4)nc23)cn1` [SCH-900776], for which the Kd in [1], in [2], in assay [3], in assay [4], in assay [5] and in assay [6] was > 30 µM (inactive) each time. In addition, the Kd is > 30 µM (inactive) in assay [7]; 19.3 µM (active) in [8]; > 30 µM (inactive) in assay [9]; > 30 µM (inactive) in [10]; > 30 µM (inactive) at Activin receptor type-2B; > 30 µM (inactive) on Ephrin type-A receptor 7.
For the molecule `CCS(=O)(=O)c1cccc(-c2cc(C(=O)NC3CCN(C)CC3)c(C)c3[nH]c4ncc(C)cc4c23)c1` [TAK-901], the Kd in [1] was > 30 µM (inactive); in [2], > 30 µM (inactive); in [3], 13.8 µM (active); in assay [4], > 30 µM (inactive); in assay [5], 1.03 µM (active); in assay [6], 0.143 µM (active). For the same molecule, the Kd in assay [7] was > 30 µM (inactive); in assay [8] it was > 30 µM (inactive); in assay [9], > 30 µM (inactive); in assay [10] it was > 30 µM (inactive); at Activin receptor type-2B it was > 30 µM (inactive); on Ephrin type-A receptor 7, 0.615 µM (active).
In the case of `CO[C@H]1C[C@@H]2CC[C@@H](C)[C@@](O)(O2)C(=O)C(=O)N2CCCC[C@H]2C(=O)O[C@H]([C@H](C)C[C@@H]2CC[C@@H](OC(=O)C(C)(CO)CO)[C@H](OC)C2)CC(=O)[C@H](C)/C=C(\C)[C@@H](O)[C@@H](OC)C(=O)[C@H](C)C[C@H](C)/C=C/C=C/C=C/1C` [TEMSIROLIMUS], the Kd in assay [1], in [2], in assay [3], in [4], in assay [5] and in assay [6] was > 30 µM (inactive) in each case. The Kd (in [7]; in assay [8]; in [9]; in assay [10]; on Activin receptor type-2B; on Ephrin type-A receptor 7) was > 30 µM (inactive) in each case.
For the molecule `COc1cc2c(Nc3ccc(Cl)c(Cl)c3F)ncnc2cc1OC[C@@H]1C[C@@H]2CN(C)C[C@@H]2C1` [TESEVATINIB], the Kd in assay [1] is > 30 µM (inactive); in [2], > 30 µM (inactive); in [3], 0.073 µM (active); in assay [4], > 30 µM (inactive); in assay [5], > 30 µM (inactive); in assay [6], 1.16 µM (active). In addition, the Kd in assay [7] was > 30 µM (inactive); in [8] it was > 30 µM (inactive); in assay [9] it was > 30 µM (inactive); in assay [10] it was > 30 µM (inactive); at Activin receptor type-2B, > 30 µM (inactive); at Ephrin type-A receptor 7, 0.022 µM.
Consider `O=C(Cc1ccc(-c2ccc(OCCN3CCOCC3)cc2)cn1)NCc1ccccc1` [TIRBANIBULIN], for which the Kd in assay [1], in assay [2], in [3], in assay [4], in assay [5] and in assay [6] was > 30 µM (inactive) each time. Besides, the Kd (in assay [7]; in [8]; in assay [9]; in [10]; on Activin receptor type-2B; at Ephrin type-A receptor 7) was > 30 µM (inactive) in each case.
`C[C@@H](NC(=O)c1ncnc(N)c1Cl)c1ncc(C(=O)Nc2cc(C(F)(F)F)c(Cl)cn2)s1` [TOVORAFENIB]: the Kd in assay [1] is > 30 µM (inactive); in assay [2], > 30 µM (inactive); in assay [3], 0.063 µM (active); in assay [4] it was > 30 µM (inactive); in [5] it was > 30 µM (inactive); in [6] it was > 30 µM (inactive). The Kd (in assay [7]; in assay [8]; in [9]; in [10]; on Activin receptor type-2B; on Ephrin type-A receptor 7) was > 30 µM (inactive) throughout.
Turning to `Cc1cc(Nc2ncnc3ccc(NC4=NC(C)(C)CO4)cc23)ccc1Oc1ccn2ncnc2c1` [TUCATINIB], the Kd in assay [1], in assay [2], in assay [3], in [4], in [5] and in assay [6] was > 30 µM (inactive) in each case. Moreover, the Kd (in assay [7]; in [8]; in assay [9]; in [10]; on Activin receptor type-2B; at Ephrin type-A receptor 7) was > 30 µM (inactive) throughout.
On to `C[C@@H](N)c1ccc(C(=O)Nc2ccnc3[nH]ccc23)cc1` [Y-39983], for which the Kd in [1], in [2], in [3], in assay [4], in assay [5] and in [6] was > 30 µM (inactive) in each case. The Kd (in assay [7]; in assay [8]; in assay [9]; in assay [10]; on Activin receptor type-2B; on Ephrin type-A receptor 7) was > 30 µM (inactive) in each case.
